Residues, ends and D or L forms follow the SMILES beside them. *: point of attachment. Cbz = O=C(OCc1ccccc1)*
Key:
endogenous AID = assay: Endogenous AID levels by western blot in B-cell lymphoma lines (Ramos, CH12-F3, DT40); assay type: cell-based, human, mouse and chicken; details: Ramos and DT40; 2 microM GA and 10 microM MG132
Experimental: (§1) One of two experiments is shown. […] (D) AID stabilization by Hsp90 requires protein-protein interaction. […] Dead cells were excluded by propidium iodide staining. […] One of five independent experiments is shown. […] (D) and (F) are representative of three different experiments.
(A) AID degradation following Hsp90 inhibition is distinct from nuclear AID degradation. Ramos cells stably expressing AID-GFP were treated in triplicate with DMSO (Ctrl), 2 microM GA and/or 50 ng/mL leptomycin B (LMB) and the GFP signal was monitored over time by flow cytometry. The MFI normalized to t0=100% is plotted for each treatment. Dead cells were excluded by propidium iodide staining. […] Ramos cells stably expressing AID-GFP pretreated with 100 ng/mL cycloheximide (CHX), a known protein synthesis inhibitor, for 1 h were treated and analyzed as in (A). […] The GFP signal was monitored and plotted as above. […] Immunoprecipitates were analyzed by western blot using anti-GFP and anti-ubiquitin antibodies. […] In the lower panel, the relative amount of polyubiquitinated AID was quantified by densitometry using ImageQuant™ and the relative value of three independent experiments for each Ramos, HeLa and primary mouse B cells was plotted+SD.
In cell lines stably expressing GFP-tagged AID or AID mutants, the GFP fluorescence signal was measured by flow cytometry at various time points after the indicated treatments. […]

AID-GFP = assay: Monitoring of AID stability: GFP signal (MFI) by flow cytometry in Ramos transfectants; assay type: cell-based, human; details: for degradation of AID-GFP induced by Hsp90 inhibition, with proteasome inhibitor: stable transfectants of Ramos and DT40 cells, 10 microM MG132
Experimental: as §1
(A) AID degradation following Hsp90 inhibition is distinct from nuclear AID degradation. Ramos cells stably expressing AID-GFP were treated in triplicate with DMSO (Ctrl), 2 microM GA and/or 50 ng/mL leptomycin B (LMB) and the GFP signal was monitored over time by flow cytometry. The MFI normalized to t0=100% is plotted for each treatment. Dead cells were excluded by propidium iodide staining. One out of five identical experiments is shown. […] Ramos cells stably expressing AID-GFP pretreated with 100 ng/mL cycloheximide (CHX), a known protein synthesis inhibitor, for 1 h were treated and analyzed as in (A). One out of four identical experiments is shown. (C) Cytoplasmic destabilization of AID following Hsp90 inhibition. Analogous experiments to those in A and B were performed on Ramos cells stably expressing GFP-AID, which was previously shown to be unable to enter the nucleus (probably because the N-terminal fusion of GFP to AID masks the NLS)^28. One out of three identical experiments is shown. (D) AID degradation following Hsp90 inhibition requires the proteasome. Ramos cells stably expressing AID-GFP were treated with DMSO (Ctrl), 2 microM 17-MG and 10 microM MG132, a known specific proteasome inhibitor, as indicated. The GFP signal was monitored and plotted as above. One out of five experiments is shown. (E) Lower AID steady-state levels induced by Hsp90 inhibition can be blocked by proteasome inhibition in B cell lymphoma lines. Human and chicken B-cell lines (Ramos and DT40 respectively) were treated with 2 microM GA and 10 microM MG132 and subsequently harvested as indicated. The cells were lyzed, fractionated on SDS-PAGE and blotted. Blots were probed with anti-AID and anti-actin. One out of two experiments is shown for each cell line. (F) Hsp90 inhibition enhances AID polyubiquitination. […] Immunoprecipitates were analyzed by western blot using anti-GFP and anti-ubiquitin antibodies. […] In the lower panel, the relative amount of polyubiquitinated AID was quantified by densitometry using ImageQuant™ and the relative value of three independent experiments for each Ramos, HeLa and primary mouse B cells was plotted+SD. […]
(A) DT40 cells and (B) Hela aid−/− cells stably expressing AID-GFP were treated with the indicated combinations of DMSO (Ctrl), 2 microM GA, 50 ng/mL leptomycin B (LMB), a nuclear export inhibitor and/or 10 microM MG132, a proteasome inhibitor. The GFP signal was monitored by flow cytometry and the MFI normalized to the signal at t0 for each treatment. […]

AID mRNA = details: breast and ovarian tissue; cited from earlier work
DT40 cells = assay: DT40 cell growth under chronic Hsp90 inhibition; assay type: cell-based, chicken; details: chronic low doses
Experimental: The median obtained for populations treated in each condition is indicated. […] Mean+SD values for the seven populations in each condition are plotted (middle panel). […] An identical experiment to (A) was performed except that the less toxic 17-AAG was used to inhibit Hsp90. […] The effect of the two 17-AAG concentrations used on DT40 growth was monitored by calculating the total number of cells in populations originating from 10^5 cells (left panel). The data plotted is the mean+SD of triplicate cultures for each condition. […] The quantitation of AID levels (middle panel) and cell growth curves (right panel) were done as in (B).

IgVlambda region = assay: Somatic hypermutation in DT40 cells by sequencing of IgVlambda; details: 0.1 microM
Experimental: DT40 sIgM− cells were purified by FACS sorting and grown for about a week in 24-well plates until confluent before addition of Hsp90 inhibitors. This method was favored over using single cell clones because of the effect of Hsp90 inhibition on cell growth. […] Cell populations were sorted and grown as above and the sIgM phenotype analyzed by flow cytometry. The mutation load and pattern was determined by sequencing PCR-amplified Vlambda. AID levels in the populations were quantified by western blot after expansion.
This region was PCR-amplified from control and 17-MG-treated (0.1 microM) cell populations after 4 weeks of growth, the PCR product cloned and 10-11 clones for each population were sequenced.

Hsp90 = details: cited from earlier work
[1] = system: various cancer cell lines; details: cited from earlier work

## CC(C)C[C@@H](C=O)NC(=O)[C@H](CC(C)C)NC(=O)[C@H](CC(C)C)NC(=O)OCc1ccccc1 [MG132] (Cbz-Leu-Leu-Leu-aldehyde)
Endogenous AID
  degradation of endogenous AID induced by Hsp90 inhibition, with proteasome inhibitor: prevented the degradation of AID
AID-GFP
  degradation of AID-GFP induced by Hsp90 inhibition, with proteasome inhibitor: prevented the degradation of AID

## C[C@@H]1C[C@@H]([C@H](O)CC2CC(=O)NC(=O)C2)C(=O)[C@@H](C)C1 [CHX, cycloheximide]
AID-GFP; Ramos, CHX alone
  decay of AID-GFP after protein synthesis inhibition: expected decay

## CC(=O)N[C@@H](CSC(=O)[C@]1([C@@H](O)C(C)C)NC(=O)[C@H](C)[C@@H]1O)C(=O)O [lactacystin]
AID-GFP
  degradation of AID-GFP induced by Hsp90 inhibition, with proteasome inhibitor: Identical results

## estrogen
AID mRNA
  increase in AID mRNA production: > 20 fold

## CCC(=C/[C@H](C)C/C=C/C(C)=C/[C@@H](C)C(=O)[C@@H](C)[C@H](O)[C@@H](C)C/C(C)=C/C(=O)O)/C=C/[C@@H]1OC(=O)C=C[C@@H]1C [LMB, leptomycin B]
AID-GFP; Ramos expressing GFP-AID
  stability of GFP-AID (unable to enter the nucleus): not destabilized

## C=CCNC1=C2C[C@@H](C)C[C@H](OC)[C@H](O)[C@@H](C)/C=C(\C)[C@H](OC(N)=O)[C@@H](OC)/C=C\C=C(/C)C(=O)NC(=CC1=O)C2=O [17-AAG, 17-(Allylamino)-17-demethoxygeldanamycin]
DT40 cells
  cell growth: minimal impact on cell growth
IgVlambda region; 4 weeks
  decrease of mutation frequency versus controls: ~5 fold
IgVlambda region; 4 weeks of growth, 10-11 clones per population
  mutation frequency of the IgVlambda region: 1.11×10^−3 mutations/base pair

## O=C1OCC/C=C/CC/C=C/C(=N/OCC(=O)N2CCCCC2)Cc2c(Cl)c(O)cc(O)c21 [NXD30001]
Hsp90
  Hsp90 binding affinity compared to 17-MG and 17-DMAG: enhanced
[1]
  potency in inhibiting cell growth in vitro compared to 17-MG and 17-DMAG: enhanced

## COC1=C2C[C@@H](C)C[C@H](OC)[C@H](O)[C@@H](C)/C=C(\C)[C@H](OC(N)=O)[C@@H](OC)/C=C\C=C(/C)C(=O)NC(=CC1=O)C2=O [GA, geldanamycin]
DT40 cells
  cell growth: delayed cell growth

From patent US20110237560A1, “MODULATING AND/OR DETECTING ACTIVATION INDUCED DEAMINASE AND METHODS OF USE THEREOF” (priority 2010, published 2011)
